{"source": "paper PMC12959137", "about": "(Antimicrobial Agents and Chemotherapy, 2026)", "molecular_target": "KPC-2 (Klebsiella pneumoniae, UniProt Q9F663)", "sequence (Q9F663 25-293 limits assumed)": "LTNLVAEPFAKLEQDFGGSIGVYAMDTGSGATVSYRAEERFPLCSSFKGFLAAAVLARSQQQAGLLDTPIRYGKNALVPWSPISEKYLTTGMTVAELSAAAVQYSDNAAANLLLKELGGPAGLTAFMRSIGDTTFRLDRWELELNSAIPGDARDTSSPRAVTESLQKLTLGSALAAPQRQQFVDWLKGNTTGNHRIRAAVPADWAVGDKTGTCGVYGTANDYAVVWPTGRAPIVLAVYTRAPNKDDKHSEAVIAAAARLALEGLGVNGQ", "format": "biochemical", "settings": "read-out: KM for nitrocefin hydrolysis (used in Morrison fit)", "procedure": "Initial velocities (v₀) were determined by fitting the reaction progress curves by linear regression. These velocities were then plotted against buffer concentrations and analyzed using the Morrison equation to determine the inhibition constant (Ki) ([33]). […] All data analysis and curve fitting were performed using GraphPad Prism (version 10.3.1).", "data": [{"smiles": "O=C(Cc1cccs1)N[C@@H]1C(=O)N2C(C(=O)O)=C(/C=C/c3ccc([N+](=O)[O-])cc3[N+](=O)[O-])CS[C@H]12", "note": "[nitrocefin]", "values": [{"measurement": "Km", "value": 45, "unit": "µM"}]}]}
